Conditions: Liquid, Vibrating tube method

CCCCO [butan-1-ol]
Conditions	mass density [kg/m3]
293.15 K, 100 kPa	809.5
293.15 K, 10000 kPa	816.4
293.15 K, 20000 kPa	822.9
293.15 K, 30000 kPa	828.9
293.15 K, 40000 kPa	834.5
293.15 K, 50000 kPa	839.8
293.15 K, 60000 kPa	844.7
293.15 K, 70000 kPa	849.6
293.15 K, 80000 kPa	854.2
293.15 K, 90000 kPa	858.5
293.15 K, 100000 kPa	862.9
293.15 K, 110000 kPa	866.7
293.15 K, 120000 kPa	870.8
293.15 K, 130000 kPa	874.4
293.15 K, 140000 kPa	878.1
303.15 K, 100 kPa	802
303.15 K, 10000 kPa	809.4
303.15 K, 20000 kPa	816
303.15 K, 30000 kPa	822.3
303.15 K, 40000 kPa	828
303.15 K, 50000 kPa	833.6
303.15 K, 60000 kPa	838.7
303.15 K, 70000 kPa	843.6
303.15 K, 80000 kPa	848.3
303.15 K, 90000 kPa	852.7
303.15 K, 100000 kPa	857
303.15 K, 110000 kPa	861.2
303.15 K, 120000 kPa	865
303.15 K, 130000 kPa	868.9
303.15 K, 140000 kPa	872.6
313.15 K, 100 kPa	794.1
313.15 K, 10000 kPa	801.6
313.15 K, 20000 kPa	809.1
313.15 K, 30000 kPa	815.4
313.15 K, 40000 kPa	821.4
313.15 K, 50000 kPa	827.2
313.15 K, 60000 kPa	832.6
313.15 K, 70000 kPa	837.8
313.15 K, 80000 kPa	842.6
313.15 K, 90000 kPa	847.3
313.15 K, 100000 kPa	851.6
313.15 K, 110000 kPa	856
313.15 K, 120000 kPa	860.1
313.15 K, 130000 kPa	864
313.15 K, 140000 kPa	867.9
323.15 K, 100 kPa	786.5
323.15 K, 10000 kPa	794.5
323.15 K, 20000 kPa	801.7
323.15 K, 30000 kPa	808.5
323.15 K, 40000 kPa	815
323.15 K, 50000 kPa	821
323.15 K, 60000 kPa	826.5
323.15 K, 70000 kPa	831.5
323.15 K, 80000 kPa	836.3
323.15 K, 90000 kPa	841.1
323.15 K, 100000 kPa	845.8
323.15 K, 110000 kPa	850.1
323.15 K, 120000 kPa	854.3
323.15 K, 130000 kPa	858.3
323.15 K, 140000 kPa	862.1
333.15 K, 100 kPa	778.3
333.15 K, 10000 kPa	786.8
333.15 K, 20000 kPa	794.6
333.15 K, 30000 kPa	801.7
333.15 K, 40000 kPa	808.4
333.15 K, 50000 kPa	814.6
333.15 K, 60000 kPa	820.3
333.15 K, 70000 kPa	825.6
333.15 K, 80000 kPa	830.8
333.15 K, 90000 kPa	836
333.15 K, 100000 kPa	840.5
333.15 K, 110000 kPa	844.9
333.15 K, 120000 kPa	849
333.15 K, 130000 kPa	853.2
333.15 K, 140000 kPa	857
343.15 K, 100 kPa	769.9
343.15 K, 10000 kPa	779
343.15 K, 20000 kPa	787.1
343.15 K, 30000 kPa	794.4
343.15 K, 40000 kPa	801.3
343.15 K, 50000 kPa	807.8
343.15 K, 60000 kPa	813.6
343.15 K, 70000 kPa	819.3
343.15 K, 80000 kPa	824.6
343.15 K, 90000 kPa	829.5
343.15 K, 100000 kPa	834.4
343.15 K, 110000 kPa	838.9
343.15 K, 120000 kPa	843.3
343.15 K, 130000 kPa	847.5
343.15 K, 140000 kPa	851.6
353.15 K, 100 kPa	760.9
353.15 K, 10000 kPa	770.6
353.15 K, 20000 kPa	779.2
353.15 K, 30000 kPa	787.1
353.15 K, 40000 kPa	794.3
353.15 K, 50000 kPa	800.9
353.15 K, 60000 kPa	807.7
353.15 K, 70000 kPa	813.2
353.15 K, 80000 kPa	818.9
353.15 K, 90000 kPa	823.9
353.15 K, 100000 kPa	828.8
353.15 K, 110000 kPa	833.5
353.15 K, 120000 kPa	838.1
353.15 K, 130000 kPa	842.1
353.15 K, 140000 kPa	846.5
363.15 K, 100 kPa	751.9
363.15 K, 10000 kPa	762.6
363.15 K, 20000 kPa	771.7
363.15 K, 30000 kPa	780.1
363.15 K, 40000 kPa	787.4
363.15 K, 50000 kPa	794.3
363.15 K, 60000 kPa	800.9
363.15 K, 70000 kPa	807
363.15 K, 80000 kPa	812.5
363.15 K, 90000 kPa	817.9
363.15 K, 100000 kPa	822.9
363.15 K, 110000 kPa	827.7
363.15 K, 120000 kPa	832.4
363.15 K, 130000 kPa	836.8
363.15 K, 140000 kPa	841
373.15 K, 100 kPa	742.4
373.15 K, 10000 kPa	753.4
373.15 K, 20000 kPa	763.3
373.15 K, 30000 kPa	772.2
373.15 K, 40000 kPa	780
373.15 K, 50000 kPa	787.2
373.15 K, 60000 kPa	793.8
373.15 K, 70000 kPa	800.2
373.15 K, 80000 kPa	805.8
373.15 K, 90000 kPa	811.5
373.15 K, 100000 kPa	817
373.15 K, 110000 kPa	821.9
373.15 K, 120000 kPa	826.3
373.15 K, 130000 kPa	831
373.15 K, 140000 kPa	835.3
383.15 K, 100 kPa	732.2
383.15 K, 10000 kPa	744.7
383.15 K, 20000 kPa	754.6
383.15 K, 30000 kPa	764.3
383.15 K, 40000 kPa	772.2
383.15 K, 50000 kPa	779.6
383.15 K, 60000 kPa	786.6
383.15 K, 70000 kPa	793.2
383.15 K, 80000 kPa	799.1
383.15 K, 90000 kPa	804.9
383.15 K, 100000 kPa	810.3
383.15 K, 110000 kPa	815.4
383.15 K, 120000 kPa	820.4
383.15 K, 130000 kPa	825
383.15 K, 140000 kPa	829.6
393.15 K, 10000 kPa	735.3
393.15 K, 20000 kPa	746.4
393.15 K, 30000 kPa	755.9
393.15 K, 40000 kPa	764.9
393.15 K, 50000 kPa	772.3
393.15 K, 60000 kPa	779.6
393.15 K, 70000 kPa	786.3
393.15 K, 80000 kPa	792.8
393.15 K, 90000 kPa	798.8
393.15 K, 100000 kPa	804.3
393.15 K, 110000 kPa	809.7
393.15 K, 120000 kPa	814.7
393.15 K, 130000 kPa	819.3
393.15 K, 140000 kPa	823.9
403.15 K, 10000 kPa	725.6
403.15 K, 20000 kPa	737.3
403.15 K, 30000 kPa	747.7
403.15 K, 40000 kPa	756.9
403.15 K, 50000 kPa	765.4
403.15 K, 60000 kPa	772.8
403.15 K, 70000 kPa	779.9
403.15 K, 80000 kPa	786.5
403.15 K, 90000 kPa	792.6
403.15 K, 100000 kPa	798.5
403.15 K, 110000 kPa	803.9
403.15 K, 120000 kPa	809.1
403.15 K, 130000 kPa	814.1
403.15 K, 140000 kPa	819.3

— the NIST ThermoML archive (doi:10.1016/j.fluid.2010.11.020)
